Literature values, collected in patent US7875639B2, “Compounds as cannabinoid receptor ligands and uses thereof” (priority 2006, dated 2011).

What was measured:
[1] = system: microglia; details: in vitro
[2] = system: rat; details: rat formalin model of persistent pain
[3] = system: apolipoprotein F knockout mice; details: low doses
[4] = system: CB1I receptor knockout mice; details: CB1 receptor knockout mice
[5] = system: animal models; details: animal models of acute thermal pain, persistent pain, inflammatory pain and neuropathic pain
[6] = at fully efficacious doses
[7] = system: rodent models; details: rodent models of neuropathic, incisional, and both chronic and acute inflammatory pain
[8] = system: mice; details: model for post-menopausal osteoporosis
[9] = system: osteoclast

CCCC(C)(C)c1ccc2c(c1)OC(C)(C)[C@@H]1CC=C(C)C[C@@H]21 [JWH-133]
β-amyloid-induced microglial activation and neurotoxicity [1]: abrogated β-amyloid-induced microglial activation and neurotoxicity

CCCCCCC(C)(C)c1cc(OC)c([C@@H]2C=C(CO)[C@@H]3C[C@H]2C3(C)C)c(OC)c1 [HU-308]
antinociceptive response [2]: elicits an antinociceptive response

(−)-Δ^9-Tetrahydrocannabinol [Δ^9-THC]
progression of atherosclerotic lesions [3]: slowed the progression of atherosclerotic lesions | analgesic efficacy [4]: retains some analgesic efficacy

CN1CCCCC1Cn1cc(C(=O)c2cc([N+](=O)[O-])ccc2I)c2ccccc21 (stereo not shown) [AM-1241]
analgesic efficacy [5]: exhibits robust analgesic efficacy | typical CB1 receptor-mediated CNS side effects [6]: devoid of typical CB1 receptor-medicated CNS side effects

COc1ccc2c(c1)c(CCN1CCOCC1)c(C)n2C(=O)c1cccc(Cl)c1Cl [GW405833]
typical CB1 receptor-mediated CNS side effects [6]: devoid of typical CB1 receptor-medicated CNS side effects | efficacy in pain models [7]: is efficacious

SR144528
ovariectomy-induced bone loss [8]: reverse ovariectomy-induced bone loss | osteoclast activity [9]: inhibit osteoclast activity
